Laboratory results from patent publication US20130259835A1, “BIFIDOBACTERIUM ADOLESCENTIS SPM0212 HAVING ANTIVIRAL ACTIVITY FOR HEPATITIS B VIRUS, AND PHARMACEUTICAL COMPOSITION FOR PREVENTING AND TREATING HEPATITIS B COMPRISING THEREOF” (SAHMYOOK UNIVERSITY INDUSTRY-ACADEMIC COOPERATION, priority 2011, published 2013).

Experiments:
Experiment in all cases: Antibiotics sensitivity, agar dilution MIC
Type in all cases: cell-based
[1] = system: Bifidobacterium adolescentis KCTC3352; conditions: strain KCTC3352; Table 5
Method: (§1) Antibiotics sensitivity test was performed for comparative analysis of phenotypes of the lactobacillus strain separated in Example 1 and standard strains purchased from KCTC. In order to find out the minimum inhibitory concentrations (MICs) of 18 kinds of antibiotics (ampicillin, mupirocin, amoxicillin/clavulanic acid, oxacillin, cefonicid, cefazolin, ceftazidime, cefotaxime, ceftriaxone, tigecyclin, streptomycin, vancomycin, teicoplanin, daptomycin, linezolid, clindamycin, quinupristin/dalfopristin and tobramycin), agar dilution method was performed according to the Clinical and Laboratory Standards Institute (CLSI, 2003), and the results were listed in Tables 4 and 5.

[2] = system: Bifidobacterium adolescentis SPM0212; conditions: strain SPM0212; Table 5
Method: as §1

[3] = system: Bifidobacterium adolescentis SPM0214; conditions: strain SPM0214; Table 5
Method: as §1

[4] = system: Bifidobacterium adolescentis SPM0308; conditions: strain SPM0308; Table 5
Method: as §1

[5] = system: Bifidobacterium adolescentis SPM1005; conditions: strain SPM1005; Table 5
Method: as §1

[6] = system: Bifidobacterium adolescentis SPM1307-A; conditions: strain SPM1307-A; Table 5
Method: as §1

[7] = system: Bifidobacterium adolescentis SPM1601; conditions: strain SPM1601; Table 5
Method: as §1

[8] = system: Bifidobacterium adolescentis SPM1604; conditions: strain SPM1604; Table 5
Method: as §1

[9] = system: Bifidobacterium adolescentis SPM1605; conditions: strain SPM1605; Table 5
Method: as §1

[10] = system: Bifidobacterium adolescentis SPM1606; conditions: strain SPM1606; Table 5
Method: as §1

[11] = system: Bifidobacterium adolescentis SPM1608; conditions: strain SPM1608; Table 5
Method: as §1

[12] = system: Bifidobacterium longum KCTC3128; conditions: strain KCTC3128; Table 5
Method: as §1

[13] = system: Bifidobacterium longum SPM1205; conditions: strain SPM1205; Table 5
Method: as §1

[14] = system: Bifidobacterium longum SPM1206; conditions: strain SPM1206; Table 5
Method: as §1

[15] = system: Bifidobacterium pseudocatenulatum KCTC3223; conditions: strain KCTC3223; Table 5
Method: as §1

[16] = system: Bifidobacterium pseudocatenulatum SPM1204; conditions: strain SPM1204; Table 5
Method: as §1

[17] = system: Bifidobacterium pseudocatenulatum SPM1309; conditions: strain SPM1309; Table 5
Method: as §1

| Structure (SMILES) | Minimum inhibitory concentrations (MICs) [1] | Minimum inhibitory concentrations (MICs) [2] | Minimum inhibitory concentrations (MICs) [3] | Minimum inhibitory concentrations (MICs) [4] | Minimum inhibitory concentrations (MICs) [5] | Minimum inhibitory concentrations (MICs) [6] | Minimum inhibitory concentrations (MICs) [7] | Minimum inhibitory concentrations (MICs) [8] | Minimum inhibitory concentrations (MICs) [9] | Minimum inhibitory concentrations (MICs) [10] | Minimum inhibitory concentrations (MICs) [11] | Minimum inhibitory concentrations (MICs) [12] | Minimum inhibitory concentrations (MICs) [13] | Minimum inhibitory concentrations (MICs) [14] | Minimum inhibitory concentrations (MICs) [15] | Minimum inhibitory concentrations (MICs) [16] | Minimum inhibitory concentrations (MICs) [17] |
| --- | --- | --- | --- | --- | --- | --- | --- | --- | --- | --- | --- | --- | --- | --- | --- | --- | --- |
| CCC[C@@H]1C[C@@H](C(=O)N[C@@H]([C@H]2O[C@H](SC)[C@H](O)[C@@H](O)[C@H]2O)[C@H](C)Cl)N(C)C1 [CLI, clindamycin] | 4 μl/Ml | 4 μl/Ml | 32 μl/Ml | 32 μl/Ml | 32 μl/Ml | 4 μl/Ml | 16 μl/Ml | 4 μl/Ml | 4 μl/Ml | 4 μl/Ml | 8 μl/Ml | 4 μl/Ml | 4 μl/Ml | 8 μl/Ml | 8 μl/Ml | >128 μl/Ml | 8 μl/Ml |
| CCCCCCCCCC(=O)N[C@@H](Cc1c[nH]c2ccccc12)C(=O)N[C@H](CC(N)=O)C(=O)N[C@@H](CC(=O)O)C(=O)N[C@@H]1C(=O)NCC(=O)N[C@@H](CCCN)C(=O)N[C@@H](CC(=O)O)C(=O)N[C@H](C)C(=O)N[C@@H](CC(=O)O)C(=O)NCC(=O)N[C@H](CO)C(=O)N[C@@H]([C@H](C)CC(=O)O)C(=O)N[C@@H](CC(=O)c2ccccc2N)C(=O)O[C@@H]1C [DAP, daptomycin] | 16 μl/Ml | 4 μl/Ml | 2 μl/Ml | 0.25 μl/Ml | 1 μl/Ml | 8 μl/Ml | 4 μl/Ml | 4 μl/Ml | 4 μl/Ml | 0.12 μl/Ml | 8 μl/Ml | 16 μl/Ml | 2 μl/Ml | 4 μl/Ml | 16 μl/Ml | 2 μl/Ml | 4 μl/Ml |
| CC(=O)NC[C@H]1CN(c2ccc(N3CCOCC3)c(F)c2)C(=O)O1 [LNZ, linezolid] | 8 μl/Ml | 8 μl/Ml | 0.25 μl/Ml | 2 μl/Ml | 4 μl/Ml | 8 μl/Ml | 8 μl/Ml | 1 μl/Ml | 4 μl/Ml | 2 μl/Ml | 8 μl/Ml | 8 μl/Ml | 2 μl/Ml | 1 μl/Ml | 8 μl/Ml | 8 μl/Ml | 2 μl/Ml |
